Series [1] can be described thus: Drug concentration in Balb/c mouse blood at 10 mg/kg, po BID by LC-MS/MS analysis. The series is classed as ADME, organism-based. Conditions: in vivo, read-out: Drug uptake.
Series [2] in a line: Thermodynamic solubility of the compound at pH 6.8. As to conditions: buffer, read-out: Therm_solubility. The class given is physicochemical.
For the next series, the system named is OCI-Ly3. Put plainly: Antiproliferation activity against human OCI-LY3 cells assessed as reduction in cell viability incubated for 14 days by resazurin dye-based fluorescence analysis. The series is classed as functional. As to conditions: OCI-Ly3, 336 h.
In series [3] the target is T1, Mucosa-associated lymphoid tissue lymphoma translocation protein 1 (Homo sapiens, UniProt Q9UDY8).
T1 sequence (Q9UDY8 whole entry): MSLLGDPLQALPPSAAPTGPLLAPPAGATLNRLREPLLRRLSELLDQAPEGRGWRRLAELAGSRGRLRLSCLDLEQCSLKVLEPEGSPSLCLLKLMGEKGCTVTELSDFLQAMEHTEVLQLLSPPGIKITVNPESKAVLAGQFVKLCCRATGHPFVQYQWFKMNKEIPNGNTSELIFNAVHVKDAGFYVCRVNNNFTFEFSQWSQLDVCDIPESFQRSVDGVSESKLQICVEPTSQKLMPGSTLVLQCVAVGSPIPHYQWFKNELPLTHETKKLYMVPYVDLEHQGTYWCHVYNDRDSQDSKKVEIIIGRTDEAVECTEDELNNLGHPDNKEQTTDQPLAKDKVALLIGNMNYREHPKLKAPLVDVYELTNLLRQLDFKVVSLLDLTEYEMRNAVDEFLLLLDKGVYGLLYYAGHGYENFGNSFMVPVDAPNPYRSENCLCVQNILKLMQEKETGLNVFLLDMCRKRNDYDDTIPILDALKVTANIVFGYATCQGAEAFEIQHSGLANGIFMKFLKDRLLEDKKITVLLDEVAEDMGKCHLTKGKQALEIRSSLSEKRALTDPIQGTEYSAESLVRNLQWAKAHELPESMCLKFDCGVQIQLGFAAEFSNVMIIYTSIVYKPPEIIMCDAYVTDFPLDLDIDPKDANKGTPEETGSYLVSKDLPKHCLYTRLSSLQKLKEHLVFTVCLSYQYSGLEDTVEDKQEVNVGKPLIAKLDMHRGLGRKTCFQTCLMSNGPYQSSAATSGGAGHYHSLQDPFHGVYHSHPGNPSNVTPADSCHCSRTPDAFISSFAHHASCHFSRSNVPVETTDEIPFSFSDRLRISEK
Description: Allosteric inhibition of human wild-type […] MALT1 (329 to 824 residues) protease activity using Ac-Leu-Arg-Ser-Arg Rh110-dPro as substrate preincubated for 60 mins followed by substrate addition and measured after 60 mins by fluorescence assay.

The nature of series [4]: Dose normalized AUC (0 to 24 hrs) in Sprague-Dawley rat at 3 mg/kg, po administered as cassette dosing. Conditions: in vivo. The series is classed as ADME, organism-based.
The test system of series [5] is Mus musculus. Put plainly: Immunomodulatory activity in human TMD8 cells xenografted SCID mouse assessed as increase in levels of uncleaved BCL10 in tumor at 100 mg/kg, po. The series is classed as functional, organism-based.
In series [6] the test system is Mus musculus. Description: Anti-autoimmune disease activity in Balb/c mouse assessed as reduction in anti-DNP induced IgM producing B cells at 30 mg/kg, po administered twice at 12 hrs interval immunized post 1 hr first treatment measured after 8 days by ELISA relative to control. The series is classed as functional. The arrangement: scale not given: the % may be the effect or the level left. As to conditions: time 8 day. (In an ELISA, binding on a coated surface is turned into a signal by an enzyme label.)

Series [7] is described as follows: Clearance in Sprague-Dawley rat at 1 mg/kg, iv administered as cassette dosing. The class given is ADME, organism-based. As to conditions: in vivo.
Series [8] in a line: Intrinsic clearance in rat liver microsomes. The series is classed as ADME, Microsome. Conditions: read-out: CLH. Background: Liver microsomes are a subcellular fraction often used to study metabolism.
Series [9] concerns the target Baculoviral IAP repeat-containing protein 3/Mucosa-associated lymphoid tissue lymphoma translocation protein 1 (Homo sapiens, UniProt Q13489+Q9UDY8). Put plainly: Allosteric inhibition of MALT1-cIAP2 (unknown origin) fusion protein expressed in HEK293 cells assessed as reduction in NF-KappaB activation by luciferase reporter gene assay. The class given is cell-based.

Series [10] is described as follows: Drug concentration in Balb/c mouse blood at 30 mg/kg, po BID administered at 12 hrs interval immunized post 1 hr first treatment measured after 12 hrs post second dose by LC-MS/MS analysis. The series is classed as ADME, organism-based. As to conditions: whole blood, read-out: Drug uptake.
Series [11] has as its system Mus musculus. Put plainly: Immunomodulatory activity in human TMD8 cells xenografted SCID mouse assessed as decrease in IL-10 production in tumor at 100 mg/kg, po. The series is classed as functional, organism-based. A general note: Xenograft models place foreign cells or tissue in a host animal.
Series [12] is described as follows: Protein binding in rat plasma. Conditions: read-out: PPB (converted). The class given is ADME, cell-free.
A short description of series [13]: Permeability of compound by PAMPA assay. The series is classed as ADME.
Series [14] is described as follows: Half-life in Balb/c mouse at 1 mg/kg, iv administered as cassette dosing. The class given is ADME, organism-based. As to conditions: in vivo.
The subject of series [15] is BJAB. Put plainly: Antiproliferative activity against human BJAB cells assessed as assessed as reduction in colony formation at 19.5 to 10000 nM incubated for 14 days by soft-agar assay. The class given is functional, cell-based. Conditions: dose 19.5-10000 nM, time 14.0 day.
The nature of series [16]: Protein binding in mouse plasma. The series is classed as ADME, cell-free. As to conditions: read-out: PPB (converted).
The nature of series [17]: Inhibition of mixed lymphocyte reaction in rat PBMC cells assessed as reduction in [3H]-thymidine incorporation measured after 5 days in presence of Il-7 by microbeta counting method. The class given is cell-based.
The subject of series [18] is BJAB. Put plainly: Antiproliferation activity against human BJAB cells assessed as reduction in cell viability incubated for 14 days by resazurin dye-based fluorescence analysis. The series is classed as functional. Conditions: 336 h.
Series [19] is described as follows: Tmax in human TMD8 cells xenografted SCID mouse at 100 mg/kg, po qd by UPLC-MS/MS analysis. The series is classed as ADME, organism-based. Conditions: in vivo.
Series [20] in a line: Clearance in Balb/c mouse at 1 mg/kg, iv administered as cassette dosing. The class given is ADME, organism-based. Conditions: in vivo.
A short description of series [21]: Drug concentration in Balb/c mouse blood at 100 mg/kg, po BID by LC-MS/MS analysis. The series is classed as ADME, organism-based. Conditions: in vivo, read-out: Drug uptake.

The values that follow come from ChEMBL document CHEMBL4673331 (J Med Chem, 2020).

In brackets after ≈: the same amount, converted by molar mass. Activity calls are given as the source filed them. No cut-off for these calls is given here. Some results are limits rather than exact numbers.

Sequence of Baculoviral IAP repeat-containing protein 3/Mucosa-associated lymphoid tissue lymphoma translocation protein 1 (Q13489 whole entry, one chain of several, the tested form may be a part): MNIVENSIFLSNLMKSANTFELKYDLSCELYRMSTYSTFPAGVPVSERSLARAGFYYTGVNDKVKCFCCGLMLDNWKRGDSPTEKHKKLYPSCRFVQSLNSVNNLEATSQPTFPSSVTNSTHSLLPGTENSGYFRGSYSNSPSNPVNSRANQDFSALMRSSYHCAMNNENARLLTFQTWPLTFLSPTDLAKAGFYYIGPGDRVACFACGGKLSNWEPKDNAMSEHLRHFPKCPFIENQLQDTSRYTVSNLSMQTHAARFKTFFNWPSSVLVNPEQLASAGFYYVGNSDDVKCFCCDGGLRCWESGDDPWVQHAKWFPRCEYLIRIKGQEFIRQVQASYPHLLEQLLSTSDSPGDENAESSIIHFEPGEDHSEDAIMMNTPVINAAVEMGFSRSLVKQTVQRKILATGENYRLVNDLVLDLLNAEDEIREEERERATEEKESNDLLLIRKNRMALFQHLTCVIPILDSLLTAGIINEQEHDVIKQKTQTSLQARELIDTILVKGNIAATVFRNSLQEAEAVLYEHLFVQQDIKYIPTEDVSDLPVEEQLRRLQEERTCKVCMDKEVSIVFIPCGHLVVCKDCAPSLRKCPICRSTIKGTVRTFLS

Take `C[C@H]1COC[C@H](C)N1c1c(NC(=O)Nc2ccnc(C(F)(F)F)c2)cnc2cc(Cl)nn12`: the results for the concentration in [1] and in series [21] were 2600 nM and 23600 nM, respectively. In addition, the solubility thermodynamic in [2] worked out at 4 µg/mL (≈ 8.51 µM). Also, the concentration for half-maximal inhibition (IC50) (commonly the concentration at which inhibition is half-maximal) with OCI-Ly3 was > 10000 nM; in series [3], 9 nM; in series [9], 140 nM; in [17], 600 nM; with BJAB [18], 2000 nM. In series [4], this compound had an AUC/dose of 547 nM·h. In addition, the result with Mus musculus [5] and with Mus musculus [11] was Active. Moreover, the Activity in the series with Mus musculus [6] was 25%. Moreover, the values for the clearance in series [7] and in series [20] were 41 mL/min/kg and 11 mL/min/kg, respectively. For the same compound, the microsomal CLint in series [8] was found to be 42 µL/min/mg. Also, in series [10], the concentration at 12 h is 120 nM. Also, the fraction unbound in series [12] was 0.013; in series [16], 0.011. The “log(permeability)” value in [13] was -4.2. In addition, in [14], the half-life (commonly how long it takes for the measured level to halve) was 1.9 h. The outcome in the series with BJAB [15] was inactive. The Tmax (as a rule, the time from dosing to the highest level) in [19] was 2 h.
